{
  "source": "paper PMC2897805",
  "about": "“Evolution of AANAT: expansion of the gene family in the cephalochordate amphioxus” (2010)",
  "target": "T1, bfAANATα (Branchiostoma floridae, UniProt B9TUB5)",
  "T1 construct": "gene AANATalpha; full-length cDNA clone from B. floridae head, GST fusion (pGEX 4T-1), E. coli BL21Gold(DE3) pLysS",
  "T1 sequence (B9TUB5 1-247)": "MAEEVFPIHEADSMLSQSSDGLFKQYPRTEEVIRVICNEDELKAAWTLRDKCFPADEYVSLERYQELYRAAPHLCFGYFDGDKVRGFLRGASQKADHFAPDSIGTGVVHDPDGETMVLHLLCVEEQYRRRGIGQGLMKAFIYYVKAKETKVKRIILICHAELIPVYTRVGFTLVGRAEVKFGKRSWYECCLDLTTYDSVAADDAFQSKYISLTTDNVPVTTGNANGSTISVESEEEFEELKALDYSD",
  "assay": "acetyltransferase activity assay, recombinant GST fusion; also displaces CoA-HNE",
  "type": "biochemical",
  "data": [
    {"smiles": "CC(C)(CO[P@@](=O)(O)O[P@@](=O)(O)OC[C@H]1O[C@@H](n2cnc3c(N)ncnc32)[C@H](O)[C@@H]1OP(=O)(O)O)[C@@H](O)C(=O)NCCC(=O)NCCSCC(=O)NCCc1c[nH]c2ccccc12", "note": "[CoA-T]", "values": [
      {"measurement": "IC50", "result": 3, "unit": "µM"}
    ]}
  ]
}
